Reference: patent US20250144223A1, “PROTEIN DEGRADATION COMPOUND BASED ON NAMPT TARGET PROTEIN AND APPLICATION THEREOF” (GLUETACS THERAPEUTICS (SHANGHAI) CO., LTD., priority 2021, published 2025)

Test system: Jurkat
Test: CellTiter-Glo Luminescent Cell Viability Assay, half inhibitory concentration (IC50) on tumor cell proliferation
Format: cell-based
Conditions: Homo sapiens, Jurkat cells, 72 h treatment
Outline: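 Jurkat cells seeded at 20,000 cells/well in serum-containing RPMI1640, treated after 24 h with serially diluted compound for 72 h at 37 °C, 5% CO2. Viability read by CellTiter-Glo luminescence; IC50 calculated from growth-inhibition curves.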

SMILES | IC50 [nM]
O=C(/C=C/c1cccnc1)NCCCCC1CCN(C(=O)c2ccc(N3CCN(C(=O)CCCCNc4cccc5c4CN(C4CCC(=O)NC4=O)C5=O)CC3)cc2)CC1 (stereo not drawn) [SIAIS632016, (E)-N-(4-(1-(4-(4-(5-((2-(2,6-dioxopiperidin-3-yl)-1-oxoisoindolin-4-yl)amino)pentanoyl)piperazin-1-yl)benzoyl)piperidin-4-yl)butyl)-3-(pyridin-3-yl)acrylamide] | 64.4
O=C(/C=C/c1cccnc1)NCCCCC1CCN(C(=O)c2ccc(N3CCN(C(=O)CCCCCNc4cccc5c4CN(C4CCC(=O)NC4=O)C5=O)CC3)cc2)CC1 (stereo not drawn) [SIAIS632017, (E)-N-(4-(1-(4-(4-(6-((2-(2,6-dioxopiperidin-3-yl)-1-oxoisoindolin-4-yl)amino)hexanoyl)piperazin-1-yl)benzoyl)piperidin-4-yl)butyl)-3-(pyridin-3-yl)acrylamide] | 21.2
O=C(/C=C/c1cccnc1)NCCCCC1CCN(C(=O)c2ccc(N3CCN(C(=O)CCCCCCNc4cccc5c4CN(C4CCC(=O)NC4=O)C5=O)CC3)cc2)CC1 (stereo not drawn) [SIAIS632018, (E)-N-(4-(1-(4-(4-(7-((2-(2,6-dioxopiperidin-3-yl)-1-oxoisoindolin-4-yl)amino)heptanoyl)piperazin-1-yl)benzoyl)piperidin-4-yl)butyl)-3-(pyridin-3-yl)acrylamide] | 55.5
O=C(/C=C/c1cccnc1)NCCCCC1CCN(C(=O)c2ccc(N3CCN(C(=O)CSc4cccc5c4C(=O)N(C4CCC(=O)NC4=O)C5=O)CC3)cc2)CC1 (stereo not drawn) [SIAIS632027, (E)-N-(4-(1-(4-(4-(2-((2-(2,6-dioxopiperidin-3-yl)-1,3-dioxoisoindolin-4-yl)thio)acetyl)piperazin-1-yl)benzoyl)piperidin-4-yl)butyl)-3-(pyridin-3-yl)acrylamide] | 294
O=C(/C=C/c1cccnc1)NCCCCC1CCN(C(=O)c2ccc(N3CCN(C(=O)CCSc4cccc5c4C(=O)N(C4CCC(=O)NC4=O)C5=O)CC3)cc2)CC1 (stereo not drawn) [SIAIS632028, (E)-N-(4-(1-(4-(4-(3-((2-(2,6-dioxopiperidin-3-yl)-1,3-dioxoisoindolin-4-yl)thio)propanoyl)piperazin-1-yl)benzoyl)piperidin-4-yl)butyl)-3-(pyridin-3-yl)acrylamide] | 105
O=C(/C=C/c1cccnc1)NCCCCC1CCN(C(=O)c2ccc(N3CCN(C(=O)CCCCSc4cccc5c4C(=O)N(C4CCC(=O)NC4=O)C5=O)CC3)cc2)CC1 (stereo not drawn) [SIAIS632029, (E)-N-(4-(1-(4-(4-(5-((2-(2,6-dioxopiperidin-3-yl)-1,3-dioxoisoindolin-4-yl)thio)pentanoyl)piperazin-1-yl)benzoyl)piperidin-4-yl)butyl)-3-(pyridin-3-yl)acrylamide] | 28.7
O=C(/C=C/c1cccnc1)NCCCCC1CCN(C(=O)c2ccc(N3CCN(C(=O)CCCCCSc4cccc5c4C(=O)N(C4CCC(=O)NC4=O)C5=O)CC3)cc2)CC1 (stereo not drawn) [SIAIS632030, (E)-N-(4-(1-(4-(4-(6-((2-(2,6-dioxopiperidin-3-yl)-1,3-dioxoisoindolin-4-yl)thio)hexanoyl)piperazin-1-yl)benzoyl)piperidin-4-yl)butyl)-3-(pyridin-3-yl)acrylamide] | 11
O=C(/C=C/c1cccnc1)NCCCCC1CCN(C(=O)c2ccc(N3CCN(C(=O)CCCCCCSc4cccc5c4C(=O)N(C4CCC(=O)NC4=O)C5=O)CC3)cc2)CC1 (stereo not drawn) [SIAIS632031, (E)-N-(4-(1-(4-(4-(7-((2-(2,6-dioxopiperidin-3-yl)-1,3-dioxoisoindolin-4-yl)thio)heptanoyl)piperazin-1-yl)benzoyl)piperidin-4-yl)butyl)-3-(pyridin-3-yl)acrylamide] | 24.4
O=C(/C=C/c1cccnc1)NCCCCC1CCN(C(=O)c2ccc(N3CCN(C(=O)CCCCCCCSc4cccc5c4C(=O)N(C4CCC(=O)NC4=O)C5=O)CC3)cc2)CC1 (stereo not drawn) [SIAIS632032, (E)-N-(4-(1-(4-(4-(8-((2-(2,6-dioxopiperidin-3-yl)-1,3-dioxoisoindolin-4-yl)thio)octanoyl)piperazin-1-yl)benzoyl)piperidin-4-yl)butyl)-3-(pyridin-3-yl)acrylamide] | 192
O=C(/C=C/c1cccnc1)NCCCCC1CCN(C(=O)c2ccc(N3CCN(C(=O)COc4cccc5c4C(=O)N(C4CCC(=O)NC4=O)C5=O)CC3)cc2)CC1 (stereo not drawn) [SIAIS632033, (E)-N-(4-(1-(4-(4-(2-((2-(2,6-dioxopiperidin-3-yl)-1,3-dioxoisoindolin-4-yl)oxy)acetyl)piperazin-1-yl)benzoyl)piperidin-4-yl)butyl)-3-(pyridin-3-yl)acrylamide] | 78.7
O=C(/C=C/c1cccnc1)NCCCCC1CCN(C(=O)c2ccc(N3CCN(C(=O)CCCCOc4cccc5c4C(=O)N(C4CCC(=O)NC4=O)C5=O)CC3)cc2)CC1 (stereo not drawn) [SIAIS632034, (E)-N-(4-(1-(4-(4-(5-((2-(2,6-dioxopiperidin-3-yl)-1,3-dioxoisoindolin-4-yl)oxy)pentanoyl)piperazin-1-yl)benzoyl)piperidin-4-yl)butyl)-3-(pyridin-3-yl)acrylamide] | 95.1

Continued, values first:

IC50 [nM] | SMILES
8.52 | O=C(/C=C/c1cccnc1)NCCCCC1CCN(C(=O)c2ccc(N3CCN(C(=O)CCCCCOc4cccc5c4C(=O)N(C4CCC(=O)NC4=O)C5=O)CC3)cc2)CC1 (stereo not drawn) [SIAIS632035, (E)-N-(4-(1-(4-(4-(6-((2-(2,6-dioxopiperidin-3-yl)-1,3-dioxoisoindolin-4-yl)oxy)hexanoyl)piperazin-1-yl)benzoyl)piperidin-4-yl)butyl)-3-(pyridin-3-yl)acrylamide]
29.3 | O=C(/C=C/c1cccnc1)NCCCCC1CCN(C(=O)c2ccc(N3CCN(C(=O)CCCCCCOc4cccc5c4C(=O)N(C4CCC(=O)NC4=O)C5=O)CC3)cc2)CC1 (stereo not drawn) [SIAIS632036, (E)-N-(4-(1-(4-(4-(7-((2-(2,6-dioxopiperidin-3-yl)-1,3-dioxoisoindolin-4-yl)oxy)heptanoyl)piperazin-1-yl)benzoyl)piperidin-4-yl)butyl)-3-(pyridin-3-yl)acrylamide]
2.75 | O=C(/C=C/c1cccnc1)NCCCCC1CCN(C(=O)c2ccc(N3CCN(CCCCCC#Cc4cccc5c4CN(C4CCC(=O)NC4=O)C5=O)CC3)nc2)CC1 (stereo not drawn) [SIAIS632039, (E)-N-(4-(1-(6-(4-(7-(2-(2,6-dioxopiperidin-3-yl)-1-oxoisoindolin-4-yl)hept-6-yn-1-yl)piperazin-1-yl)nicotinoyl)piperidin-4-yl)butyl)-3-(pyridin-3-yl)acrylamide]
5.67 | O=C(/C=C/c1cccnc1)NCCCCC1CCN(C(=O)c2ccc(N3CCN(CCCCCCC#Cc4cccc5c4CN(C4CCC(=O)NC4=O)C5=O)CC3)nc2)CC1 (stereo not drawn) [SIAIS632040, (E)-N-(4-(1-(6-(4-(8-(2-(2,6-dioxopiperidin-3-yl)-1-oxoisoindolin-4-yl)oct-7-yn-1-yl)piperazin-1-yl)nicotinoyl)piperidin-4-yl)butyl)-3-(pyridin-3-yl)acrylamide]
1.03 | O=C(/C=C/c1cccnc1)NCCCCC1CCN(C(=O)c2ccc(N3CCN(CCCCSc4cccc5c4CN(C4CCC(=O)NC4=O)C5=O)CC3)nc2)CC1 (stereo not drawn) [SIAIS632041, (E)-N-(4-(1-(6-(4-(4-((2-(2,6-dioxopiperidin-3-yl)-1-oxoisoindolin-4-yl)thio)butyl)piperazin-1-yl)nicotinoyl)piperidin-4-yl)butyl)-3-(pyridin-3-yl)acrylamide]
255 | Cc1ncsc1-c1ccc(CNC(=O)[C@@H]2C[C@@H](O)CN2C(=O)[C@@H](NC(=O)CCCCC(=O)N2CCN(C3CCN(c4ccc(C(=O)N5CCC(CCCCNC(=O)/C=C/c6cccnc6)CC5)nn4)CC3)CC2)C(C)(C)C)cc1 [SIAIS633063, (2S,4R)-1-((S)-3,3-dimethyl-2-(6-oxo-6-(4-(1-(6-(4-(4-((E)-3-(pyridin-3-yl)acrylamido)butyl)piperidine-1-carbonyl)pyridazin-3-yl)piperidin-4-yl)piperazin-1-yl)hexanamido)butanoyl)-4-hydroxy-N-(4-(4-methylthiazol-5-yl)benzyl)pyrrolidine-2-carboxamide]
15.8 | O=C(/C=C/c1cccnc1)NCCCCC1CCN(C(=O)c2ccc(N3CCC(N4CCN(CCCCCC#Cc5cccc6c5CN(C5CCC(=O)NC5=O)C6=O)CC4)CC3)nc2)CC1 (stereo not drawn) [SIAIS633093, (E)-N-(4-(1-(6-(4-(4-(7-(2-(2,6-dioxopiperidin-3-yl)-1-oxoisoindolin-4-yl)hept-6-yn-1-yl)piperazin-1-yl)piperidin-1-yl)nicotinoyl)piperidin-4-yl)butyl)-3-(pyridin-3-yl)acrylamide]
6.18 | O=C(/C=C/c1cccnc1)NCCCCC1CCN(C(=O)c2ccc(N3CCC(N4CCN(CCCCCCC#Cc5cccc6c5CN(C5CCC(=O)NC5=O)C6=O)CC4)CC3)nc2)CC1 (stereo not drawn) [SIAIS633094, (E)-N-(4-(1-(6-(4-(4-(8-(2-(2,6-dioxopiperidin-3-yl)-1-oxoisoindolin-4-yl)oct-7-yn-1-yl)piperazin-1-yl)piperidin-1-yl)nicotinoyl)piperidin-4-yl)butyl)-3-(pyridin-3-yl)acrylamide]
79 | O=C(/C=C/c1cccnc1)NCCCCC1CCN(C(=O)c2ccc(N3CCN(CCCCCCOc4cccc5c4CN(C4CCC(=O)NC4=O)C5=O)CC3)cc2)CC1 (stereo not drawn) [SIAIS633097, (E)-N-(4-(1-(4-(4-(6-((2-(2,6-dioxopiperidin-3-yl)-1-oxoisoindolin-4-yl)oxy)hexyl)piperazin-1-yl)benzoyl)piperidin-4-yl)butyl)-3-(pyridin-3-yl)acrylamide]
33.9 | O=C(/C=C/c1cccnc1)NCCCCC1CCN(C(=O)c2ccc(N3CCN(CCCCCCCOc4cccc5c4CN(C4CCC(=O)NC4=O)C5=O)CC3)cc2)CC1 (stereo not drawn) [SIAIS633098, (E)-N-(4-(1-(4-(4-(7-((2-(2,6-dioxopiperidin-3-yl)-1-oxoisoindolin-4-yl)oxy)heptyl)piperazin-1-yl)benzoyl)piperidin-4-yl)butyl)-3-(pyridin-3-yl)acrylamide]
